Six molecules from ChEMBL document CHEMBL1938320, “Biological evaluation and docking studies of recently identified inhibitors of phosphoinositide-3-kinases” (Bioorg Med Chem Lett, 2012) can be followed below.

The subject of assay [1] is HCT-116. Kind of assay: Growth inhibition of human HCT116 cells overexpressing PI3Kalpha after 48 hrs by MTT assay. It counts as functional, cell-based. Particulars: HCT-116, 48 h.
The subject of assay [2] is HCT-116. Kind of assay: Growth inhibition of human HCT116 cells overexpressing PI3Kalpha H1047R mutant after 48 hrs by MTT assay. It counts as functional, cell-based. To be noted: HCT-116, 48 h. (Formazan colour is commonly taken as a measure of viable cells.)
Assay [3] deals with Phosphatidylinositol 4,5-bisphosphate 3-kinase catalytic subunit alpha isoform (Homo sapiens) (UniProt P42336). Put plainly: Inhibition of PI3Kalpha in human HCT116 cells using [32P]ATP at 25 uM after 10 mins. In kind it is cell-based. Particulars: HCT-116.
The test system of assay [4] is Phosphatidylinositol 4,5-bisphosphate 3-kinase catalytic subunit alpha isoform (Homo sapiens), P42336 [H1047R]. Kind of assay: Inhibition of PI3Kalpha H1047R mutant in human HCT116 cells using [32P]ATP at 25 uM after 10 mins. Particulars: HCT-116. It counts as cell-based.
In assay [5] the target is Phosphatidylinositol 4,5-bisphosphate 3-kinase catalytic subunit alpha isoform (Homo sapiens) (UniProt P42336). Put plainly: Inhibition of PI3Kalpha in human HCT116 cells assessed as inhibition of Akt Ser473 phosphorylation at 25 uM by immunoblot analysis. It counts as cell-based. Particulars: HCT-116. (In general: In western blotting, separated proteins are transferred to a membrane and probed.)

Assay [6] deals with Phosphatidylinositol 4,5-bisphosphate 3-kinase catalytic subunit alpha isoform (Homo sapiens), P42336 [H1047R]. Put plainly: Inhibition of PI3Kalpha H1047R mutant in human HCT116 cells assessed as inhibition of Akt Ser473 phosphorylation at 25 uM by immunoblot analysis. To be noted: HCT-116. It counts as cell-based.
Assay [7] has as its system HCT-116. Put plainly: Inhibition of Akt expression in human HCT116 cells at 10 uM by immunoblot analysis. It counts as functional, cell-based.
Assay [8] has as its system HCT-116. Put plainly: Induction of apoptosis in human HCT116 cells assessed DNA fragmentation at 25 uM after 48 hrs by ELISA relative to control. In kind it is functional.
Assay [9] concerns HCT-116. Kind of assay: Induction of apoptosis in human HCT116 cells overexpressing PI3Kalpha assessed DNA fragmentation at 25 uM after 48 hrs by ELISA relative to control. In kind it is functional.
Assay [10] concerns HCT-116. Put plainly: Induction of apoptosis in human HCT116 cells overexpressing PI3Kalpha H1047R mutant assessed DNA fragmentation at 25 uM after 48 hrs by ELISA relative to control. It counts as functional. (ELISA stands for enzyme-linked immunosorbent assay.)
The test system of assay [11] is HCT-116. Kind of assay: cells. To be noted: Homo sapiens, HCT-116, 48 h.
Description: Growth inhibition of human HCT116 cells after 48 hrs by MTT assay
Assay [12] has as its target Phosphatidylinositol 4,5-bisphosphate 3-kinase catalytic subunit alpha isoform (Homo sapiens) (UniProt P42336). Kind of assay: Inhibition of PI3Kalpha in human HCT116 cells using [32P]ATP at 10 uM after 10 mins. In kind it is cell-based. To be noted: HCT-116.
Assay [13] relates to Phosphatidylinositol 4,5-bisphosphate 3-kinase catalytic subunit alpha isoform (Homo sapiens), P42336 [H1047R]. Put plainly: Inhibition of PI3Kalpha H1047R mutant in human HCT116 cells using [32P]ATP at 10 uM after 10 mins. Particulars: HCT-116. It counts as cell-based.
Assay [14] concerns the target Phosphatidylinositol 4,5-bisphosphate 3-kinase catalytic subunit alpha isoform (Homo sapiens) (UniProt P42336). Kind of assay: Inhibition of PI3Kalpha in human HCT116 cells assessed as inhibition of Akt Ser473 phosphorylation at 10 uM by immunoblot analysis. To be noted: HCT-116. In kind it is cell-based.
Assay [15] concerns Phosphatidylinositol 4,5-bisphosphate 3-kinase catalytic subunit alpha isoform (Homo sapiens), P42336 [H1047R]. Put plainly: Inhibition of PI3Kalpha H1047R mutant in human HCT116 cells assessed as inhibition of Akt Ser473 phosphorylation at 10 uM by immunoblot analysis. Particulars: HCT-116. It counts as cell-based.

SMILES strings stand for the structures. pIC50: −log10 of the molar value. Activity calls are given as the source filed them. The calls are words filed in the database; no cut-off is given here.

Chain of Phosphatidylinositol 4,5-bisphosphate 3-kinase catalytic subunit alpha isoform (Homo sapiens) (P42336 whole entry, canonical isoform): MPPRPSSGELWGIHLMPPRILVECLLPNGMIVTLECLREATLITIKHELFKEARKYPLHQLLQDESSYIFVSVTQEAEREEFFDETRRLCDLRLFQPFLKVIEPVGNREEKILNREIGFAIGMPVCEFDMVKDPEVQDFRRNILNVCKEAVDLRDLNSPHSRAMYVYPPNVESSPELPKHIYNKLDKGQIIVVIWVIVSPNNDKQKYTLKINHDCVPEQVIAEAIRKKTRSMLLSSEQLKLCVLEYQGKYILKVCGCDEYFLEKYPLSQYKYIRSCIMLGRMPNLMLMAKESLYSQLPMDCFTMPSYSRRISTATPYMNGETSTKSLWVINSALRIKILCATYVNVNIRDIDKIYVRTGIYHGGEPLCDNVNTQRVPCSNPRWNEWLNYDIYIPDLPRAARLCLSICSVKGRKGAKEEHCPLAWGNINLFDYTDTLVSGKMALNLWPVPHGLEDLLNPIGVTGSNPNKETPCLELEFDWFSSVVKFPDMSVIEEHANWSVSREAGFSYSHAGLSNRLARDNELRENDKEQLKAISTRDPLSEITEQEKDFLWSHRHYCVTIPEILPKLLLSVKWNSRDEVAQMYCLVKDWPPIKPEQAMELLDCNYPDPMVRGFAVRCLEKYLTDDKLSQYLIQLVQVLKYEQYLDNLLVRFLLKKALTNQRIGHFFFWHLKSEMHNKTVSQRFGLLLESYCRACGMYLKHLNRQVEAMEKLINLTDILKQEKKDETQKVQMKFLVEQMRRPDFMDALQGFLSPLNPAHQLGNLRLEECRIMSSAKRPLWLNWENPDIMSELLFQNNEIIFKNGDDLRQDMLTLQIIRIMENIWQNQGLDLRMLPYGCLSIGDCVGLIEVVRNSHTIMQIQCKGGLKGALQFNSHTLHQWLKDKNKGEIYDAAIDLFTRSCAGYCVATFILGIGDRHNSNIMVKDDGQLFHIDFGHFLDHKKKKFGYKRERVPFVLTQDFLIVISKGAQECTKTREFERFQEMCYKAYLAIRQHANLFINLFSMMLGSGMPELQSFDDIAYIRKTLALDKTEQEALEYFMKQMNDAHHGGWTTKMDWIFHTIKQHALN
Chain of Phosphatidylinositol 4,5-bisphosphate 3-kinase catalytic subunit alpha isoform (Homo sapiens), P42336 [H1047R] (P42336 whole entry H1047R, canonical isoform): as the sequence (P42336 whole entry, canonical isoform) above, with H1047R counted along it

A word on the pIC50: it is the IC50 on a negative log10 scale, so that one unit is a factor of ten. Low values mean a large IC50, high ones a small IC50. Consider `O=C(NCc1ccccc1)c1c(O)nc2ccccc2c1O`, for which the figures for the negative-log IC50 (pIC50) in [1], in assay [2] and in [11] were 5.96, 6.14 and 5.74, respectively. Besides, the inhibition entry in assay [3], in assay [4], in assay [5] and in assay [6] was “Active” throughout. Besides, the inhibition result in [7] was “inactive”. Moreover, the “fold change (FC)” value is listed as 2.9 in [8], 3.2 in assay [9] and 11 in assay [10].
As for `COc1ccc(C(=O)c2ccccc2C(=O)O)c(O)c1`, the figures for the negative logarithm of the IC50 (pIC50) in [1], in assay [2] and in assay [11] were 4.51, 4.74 and 4.89, respectively. The inhibition entry in assay [3], in assay [4], in assay [5] and in assay [6] was “Active” each time. Besides, in [7], the inhibition result was “inactive”. The “fold change (FC)” value amounted to 1.8 in assay [8], 1.3 in assay [9] and 3 in assay [10].
On to `Cc1cc(O)c2c(c1)C(=O)c1cc(O)cc(O)c1C2=O` [EMODIN], for which the results for the pIC50 in [1], in assay [2] and in assay [11] were 5.28, 5.42 and 5.21, respectively. Besides, the inhibition result in [12], in [13], in assay [14], in assay [15] and in assay [7] was “Active” in each case. Besides, the “fold change (FC)” value is given as 8.6 in assay [8], 12 in [9] and 13 in [10].
For the molecule `O=c1cc(N2CCOCC2)oc2c(-c3ccccc3)cccc12` [LY-294002], the inhibition result in assay [12], in assay [13], in assay [14] and in assay [15] was “Active” throughout. The inhibition entry in assay [7] was “inactive”. Also, the “fold change (FC)” value in assay [8] stood at 3.8; in assay [9], 8.5; in assay [10], 8.6.
For the molecule `O=c1c(O)c(-c2cc(O)c(O)c(O)c2)oc2cc(O)cc(O)c12` [MYRICETIN], the inhibition entry in assay [3], in assay [4], in assay [5] and in assay [6] was “Active” each time. In addition, the inhibition entry in [7] was “inactive”.
Consider `O=c1c(O)c(-c2ccc(O)c(O)c2)oc2cc(O)cc(O)c12` [QUERCETIN], for which the pIC50 is 4.64 in assay [1], 5.24 in assay [2] and 5.17 in [11]. The inhibition result in [3], in assay [4], in assay [5] and in assay [6] was “Active” each time. Also, the inhibition result in assay [7] was “inactive”. The “fold change (FC)” value was determined as 1 in assay [8], 2.5 in assay [9] and 4 in assay [10].
